From ChEMBL document CHEMBL1201862, “PubChem BioAssay data set” (2004) come the findings set out here.

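Each compound was tested at five concentrations against cells in 96-well plates for 48 hours. Abbreviation: GI50, concentration required for 50% inhibition of growth.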 Calls of active or inactive are those of the source. No stated cut-off is given here; in the data, active = GI50 up to about 1.1 µM and inactive = higher. Bounds are passed on as bounds.

Some test systems named below: MDA-N; M14; PC-3; NCI-H23; ACHN; SK-MEL-5; KM12; HCT-15; LOX IMVI; OVCAR-8; K562; MDA-MB-231; Malme-3M; A498; NCI-H522; SK-MEL-2; HCT-116; DU-145; OVCAR-4; HL-60.
Holding throughout (experiment): inhibition of tumour cell growth, NCI panel, 48 h

Take `CCSC1=N/C(=C\c2ccco2)C(=O)N1`: the GI50 with MDA-N, in the experiment on M14, in the experiment on PC-3, in the experiment with NCI-H23, in the experiment on ACHN and with SK-MEL-5 was > 100 µM (inactive) throughout. The GI50 is > 100 µM (inactive) in the experiment on KM12; more than 100 µM with HCT-15; > 100 µM (inactive) in the experiment with LOX IMVI; > 100 µM (inactive) in the experiment with OVCAR-8; > 100 µM (inactive) in the experiment with K562; > 100 µM (inactive) in the experiment with MDA-MB-231. Moreover, the GI50 in the experiment on Malme-3M, in the experiment with A498, in the experiment on NCI-H522, in the experiment with SK-MEL-2, in the experiment with HCT-116 and with DU-145 was > 100 µM (inactive) throughout.
Regarding `Cn1nc2ccc([N+](=O)[O-])cc2[n+]1[O-]`, the GI50 was 90.4 µM (inactive) in the experiment on MDA-N; > 100 µM (inactive) with M14; > 100 µM (inactive) with PC-3; > 100 µM (inactive) with NCI-H23; > 100 µM (inactive) with ACHN; > 100 µM (inactive) in the experiment with SK-MEL-5. In addition, the GI50 in the experiment on KM12 was > 100 µM (inactive); with HCT-15, more than 100 µM; in the experiment with OVCAR-8, > 100 µM (inactive); in the experiment on K562, > 100 µM (inactive); in the experiment with MDA-MB-231, > 100 µM (inactive); in the experiment on Malme-3M it was > 100 µM (inactive). Besides, the GI50 in the experiment on OVCAR-4 was > 100 µM (inactive); with A498, 87.9 µM (inactive); in the experiment with NCI-H522, > 100 µM (inactive); with SK-MEL-2, > 100 µM (inactive); in the experiment on HCT-116, > 100 µM (inactive); in the experiment with DU-145 it was > 100 µM (inactive).
As to `O=C(Cc1ccc2ccccc2c1)NCc1ccc(C(=O)NCCc2ccccc2)cc1`, the GI50 with MDA-N, in the experiment on M14, with PC-3, with NCI-H23, in the experiment on ACHN and with SK-MEL-5 was > 100 µM (inactive) in each case. Also, the GI50 with KM12 was > 100 µM (inactive); with HCT-15 it was more than 100 µM; in the experiment with LOX IMVI, > 100 µM (inactive); in the experiment on OVCAR-8 it was > 100 µM (inactive); with K562, > 100 µM (inactive); in the experiment with MDA-MB-231, > 100 µM (inactive). Moreover, the GI50 in the experiment with Malme-3M, in the experiment with OVCAR-4, in the experiment with A498, in the experiment on NCI-H522, in the experiment with SK-MEL-2 and in the experiment on HCT-116 was > 100 µM (inactive) each time. Also, the GI50 in the experiment with DU-145 was > 100 µM (inactive).
Consider `CC(=O)c1nc(C#N)c(N)o1`, for which the GI50 with MDA-N, with M14, in the experiment on PC-3, with NCI-H23, with ACHN and in the experiment on KM12 was > 100 µM (inactive) throughout. Moreover, the GI50 in the experiment with HCT-15 was more than 100 µM; with LOX IMVI, > 100 µM (inactive); in the experiment on OVCAR-8 it was > 100 µM (inactive); in the experiment on K562, > 100 µM (inactive); in the experiment on MDA-MB-231, > 100 µM (inactive); in the experiment on Malme-3M, > 100 µM (inactive). The GI50 in the experiment with OVCAR-4, in the experiment with A498, in the experiment with NCI-H522, in the experiment on SK-MEL-2, in the experiment on HCT-116 and with DU-145 was > 100 µM (inactive) each time.
Consider `Clc1ccc(Nc2ncco2)cc1Cl`, for which the GI50 with MDA-N, with M14, in the experiment with PC-3, in the experiment on NCI-H23, in the experiment with ACHN and in the experiment on SK-MEL-5 was > 10 µM (inactive) each time. The GI50 in the experiment with KM12 was > 10 µM (inactive); in the experiment on HCT-15, more than 10 µM; with LOX IMVI, > 10 µM (inactive); in the experiment on OVCAR-8, > 10 µM (inactive); with K562, > 10 µM (inactive); in the experiment on MDA-MB-231, > 10 µM (inactive). The GI50 with Malme-3M, in the experiment with OVCAR-4, in the experiment on A498, in the experiment with NCI-H522, in the experiment with HCT-116 and with DU-145 was > 10 µM (inactive) throughout.
Consider `CCOC(=O)c1cnc2[nH]ccn2c1=O`, for which the GI50 with MDA-N, with M14, with PC-3, with NCI-H23, with ACHN and in the experiment with SK-MEL-5 was > 10 µM (inactive) each time. Besides, the GI50 in the experiment on KM12 is > 10 µM (inactive); in the experiment on HCT-15, more than 10 µM; with HL-60 it was > 10 µM (inactive); in the experiment on LOX IMVI it was > 10 µM (inactive); with OVCAR-8, > 10 µM (inactive); in the experiment on K562, > 10 µM (inactive). The GI50 in the experiment on MDA-MB-231 is > 10 µM (inactive); with Malme-3M, > 10 µM (inactive); in the experiment with OVCAR-4, > 10 µM (inactive); with A498, 5.48 µM (inactive); in the experiment with SK-MEL-2, > 10 µM (inactive); with HCT-116, > 10 µM (inactive). The GI50 in the experiment with DU-145 was > 10 µM (inactive).
Take `COCN1C(=O)[C@@H]2CCCN2C(=O)c2cc(N)ccc21`: the GI50 in the experiment on MDA-N, with M14, in the experiment with PC-3, with NCI-H23, in the experiment on ACHN and in the experiment on KM12 was > 100 µM (inactive) in each case. Further, the GI50 with HCT-15 is more than 100 µM; with LOX IMVI, > 100 µM (inactive); in the experiment on OVCAR-8, > 100 µM (inactive); in the experiment with MDA-MB-231, > 100 µM (inactive); with Malme-3M, > 100 µM (inactive); with OVCAR-4 it was > 100 µM (inactive). For the same molecule, the GI50 in the experiment with A498, with NCI-H522, with SK-MEL-2, in the experiment with HCT-116 and with DU-145 was > 100 µM (inactive) throughout.
Regarding `CCOC(=O)C(NC(=O)c1cccc(Cl)c1)(N1CCN(c2cc3c(cc2F)c(=O)c(C(=O)O)cn3C2CC2)CC1)C(F)(F)F` (centres undefined), the GI50 in the experiment with MDA-N was 15.2 µM (inactive); with M14, 15.9 µM (inactive); with PC-3, 13.7 µM (inactive); with NCI-H23, 15.4 µM (inactive); with ACHN, 15.5 µM (inactive); in the experiment with SK-MEL-5, 12.9 µM (inactive). Besides, the GI50 in the experiment on KM12 is 11.5 µM (inactive); with HL-60, 2.67 µM (inactive); in the experiment with OVCAR-8, 17.5 µM (inactive); in the experiment with K562, 4.78 µM (inactive); with MDA-MB-231 it was 15.6 µM (inactive); with Malme-3M, 18 µM (inactive). Moreover, the GI50 in the experiment on OVCAR-4 was 15.7 µM (inactive); with A498, 20 µM (inactive); with SK-MEL-2 it was 14.7 µM (inactive); in the experiment with HCT-116, 12.7 µM (inactive); with DU-145, 25.4 µM (inactive).
